Read-outs that look alike come from different tables or passages of the source.
Legend:
[1] = tested on: bovine hemoglobin; test: Reducing agents in bovine hemoglobin solution (deoxy Hb, Met Hb, free iron); format: biochemical; conditions: for Free Iron / Met Hb / deoxy Hb: 30 mM agent, 5% bovine hemoglobin, pH 7.4, 4° C., inert atmosphere, 20 hours
Method: 30 mM of each reducing agent tested, including cysteine, glutathione, N-acetyl cysteine, N-acetyl methionine and sodium ascorbate, was added to 5% bovine hemoglobin solution containing 0.lM Na phosphate, 0.1M NaHCO3 and 0.1M NaCl, with pH=7.4 and at 4° C., under an inert atmosphere. 20 hours later, the deoxyhemoglobin (deoxy Hb), Met Hb and free iron concentrations were determined. Met Hb and deoxy Hb concentrations were measured using an OSM3 Hemoximeter (Radiometer) and free iron was determined by the ferrozine assay method (Carter, 1971, Analyt. Biochem. 40:450-458).

[2] = Oxygen binding: P50 (partial pressure of oxygen at 50% saturation) and Hill coefficient
Method: Hemoglobin constitutes about 90% of the total protein in red blood cells. 100 ml of whole blood is capable of absorbing approximately 21 ml of gaseous oxygen due to the binding ability of hemoglobin. Equally important to the binding of oxygen, hemoglobin is also efficient in releasing the bound oxygen to tissues. The ability of hemoglobin to bind and release oxygen is often quantitatively expressed as the P50, the partial pressure of oxygen which results in fifty percent saturation of hemoglobin.
The resulting modified hemoglobin may then be tested to determine its P50 value so as to confirm that a clinically useful P50 has been achieved. Methods of P50 measurement include standard methods of analysis, such as, for example, methods utilizing the Hemox-Analyzer (TCS Medical Products Co., Huntingdon Valley, Pa.).
Following reduction, the hemoglobin may be reacted with an activated polyalkylene oxide under conditions which maintain the structural integrity of the oxygen binding site. In preferred embodiments of the invention, such conditions consist of a high anion concentration; in a specific embodiment this anion is chloride ion. In preferred embodiments, the chloride ion concentration is at least about 1.0M. […] According to the invention, the activated polyalkylene oxide may have one or more than one functional groups. The degree of modification for each preparation referred to in Table I is approximately 20 percent. This percent modification corresponds to about […] PEG molecules per each molecule of hemoglobin. The percent modification may be calculated according to the number of lysines modified by PEG and is based on a total of 48 surface lysines in bovine hemoglobin. The number may be determined by trinitrobenzene sulfonic acid (TNBS) assay (Habeef et al., 1966, Analyt. Biochem. 14:328-336).
(§1) The polyalkylene oxide modified hemoglobin may then be chemically characterized using methods known in the art. For example, the oxygen dissociation curve may be determined using standard techniques (for example, Imai et al., 1970, Biochim. Biophys. Acta 200: 189-196) allowing calculation of the P50 value. Additional parameters which would be desirable to measure include the methemoglobin content, the viscosity, the osmolality, the pH, and the Hill constant; the effects of changes in pH on the oxygen saturation curve may be determined as described in Bartels (1971, Blood oxygen dissociation curves: Mammals. in "Respiration and Circulation", Altman and Dittmer, Eds., Federation of American Societies for Experimental Biology, Bethesda).
Purification was carried out using a hollow-fiber ultrafiltration device with M.W. cutoff of 50 kD that is commercially available from American Fluid, Richboro, Pa. The advantage of this device relative to conventional tangential flat ultrafiltration membranes is its easy handling of viscous protein solutions such as the 6% PEG-Hb solution. Following purification, the P50 of the PEG-Hb was determined by a Hemox-Analyzer (TCS Medical Products Co., Huntington Valley, Pa.).

[3] = Viscosity and colloid osmotic pressure of PEG-Hb solutions; format: physicochemical; conditions: for colloid osmotic pressure: 6 percent (g/dl) product
Excerpt: as §1

[4] = Methemoglobin content of PEG-Hb preparations; format: physicochemical; conditions: in preparation
Excerpt: as §1

[5] = Endotoxin (LAL test)
[6] = Half-life and intravascular Met-Hb in rats after 70 percent exchange transfusion; format: in vivo; conditions: rat, in vivo
Excerpt: Blood circulating time of polyalkylene oxide-modified Hb may, for example, and not by way of limitation, be evaluated by monitoring the concentration of hemoglobin in the plasma fraction (at 540 nm) of blood samples sequentially collected following exchange transfusion with modified Hb. Hemoglobin disappearance may be plotted as a function of time.

[7] = tested on: rats; test: Blood pressure, heart rate and breathing in rats after 70 percent exchange transfusion; format: in vivo; conditions: 70% exchange transfusion
Excerpt: Acute toxicity studies may be performed in any suitable experimental animal. Preferably, a range of exposures may be tested; for example, by evaluating animals that have received a 50 or 70 percent exchange transfusion as compared to animals that have received a 100 percent exchange transfusion. Vital signs and visual observations should be recorded, and the animals may be sacrificed after a period of time estimated to correspond to one half-life of the hemoglobin formulation being tested. Histological evaluation using standard techniques may be used to determine the presence or absence of toxic effects on tissues including lung, kidney, liver, or brain.
The results of in vivo studies, in which rats were given a 70 percent exchange transfusion of hemoglobin prepared according to Examples I-V or control (native bovine hemoglobin) are shown in Table V (bracketed numbers are values obtained in rats that were not transfused). Note that the breathing rate decreased slightly, and the blood pressure increased by at most about 30-35 percent relative to control, showing a good physiologic response to the exchange transfusion.

[8] = degree of modification 3%, 0.15M [Cl-]
[9] = degree of modification 6%, 0.15M [Cl-]
[10] = 30 mM sodium bisulfite, 59% deoxyHb before PEGylation
[11] = 50 mM sodium bisulfite, 63% deoxyHb before PEGylation
[12] = 100 mM sodium bisulfite, 75% deoxyHb before PEGylation
[13] = 175 mM sodium bisulfite, 95-100% deoxyHb before PEGylation
[14] = 0% deoxyHb before PEGylation, SC-PEG
[15] = 20% deoxyHb before PEGylation, SC-PEG
[16] = 35% deoxyHb before PEGylation, SC-PEG
[17] = 50% deoxyHb before PEGylation, SC-PEG
[18] = 70% deoxyHb before PEGylation, SC-PEG
[19] = 90% deoxyHb before PEGylation, SC-PEG
[20] = 95% deoxyHb before PEGylation, SC-PEG
[21] = 0% deoxyHb before PEGylation, BSC-PEG
[22] = 25% deoxyHb before PEGylation, BSC-PEG
[23] = 45% deoxyHb before PEGylation, BSC-PEG
[24] = 61% deoxyHb before PEGylation, BSC-PEG
[25] = 76% deoxyHb before PEGylation, BSC-PEG
[26] = 93% deoxyHb before PEGylation, BSC-PEG
[27] = [Cl-] of reaction solution 0.1 M, degree of modification approximately 20 percent
[28] = [Cl-] of reaction solution 0.5 M, degree of modification approximately 20 percent
[29] = [Cl-] of reaction solution 1.0 M, degree of modification approximately 20 percent
[30] = [Cl-] of reaction solution 1.5 M, degree of modification approximately 20 percent
[31] = [Cl-] of reaction solution 2.0 M, degree of modification approximately 20 percent
[32] = native, unmodified (footnote of Table VII)

Molecule: N[C@@H](CS)C(=O)O [Cysteine, cysteine]
- Free Iron [1]: 4.26 µg/dL
- Met Hb [1]: 0.8%
- deoxy Hb [1]: 97.6%
- deoxyhemoglobin level, ranking among agents ([1]; in words): highest levels of deoxyhemoglobin
- methemoglobin and free iron level, ranking among agents ([1]; in words): lowest levels of methemoglobin and free iron

Molecule: N[C@@H](CCC(=O)N[C@@H](CS)C(=O)NCC(=O)O)C(=O)O [GSH, reduced glutathione]
- Met Hb [1]: 11.9%
- deoxy Hb [1]: 9.7%

Molecule: CC(=O)N[C@@H](CS)C(=O)O [N-acetyl cysteine]
- Met Hb [1]: 18.8%
- deoxy Hb [1]: 0%

Molecule: CSCC[C@H](NC(C)=O)C(=O)O [N-acetyl methionine]
- Met Hb [1]: 19.6%
- deoxy Hb [1]: 0%

Molecule: O=C1O[C@H]([C@@H](O)CO)C([O-])=C1O.[Na+] [Na-Ascorbate, sodium ascorbate]
- Free Iron [1]: 233.7 µg/dL
- Met Hb [1]: 4.1%
- deoxy Hb [1]: 96.7%

Molecule: BSC-PEG(4600)-bHb: bovine hemoglobin modified with bifunctional BSC-PEG of molecular weight 4600
- P50 [2, 8]: 34 mm Hg
- P50 ([2]; degree of modification 4.5%, 0.15M [Cl-]): 34 mm Hg
- P50 [2, 9]: 32.5 mm Hg

Molecule: BSC-PEG(6000)-bHb: bovine hemoglobin modified with bifunctional BSC-PEG of molecular weight 6000
- P50 [2, 8]: 38.5 mm Hg
- P50 [2, 9]: 36.5 mm Hg
- P50 ([2]; degree of modification 7.3%, 0.15M [Cl-]): 36.5 mm Hg

Molecule: Bifunctional PEG-modified bHb: bovine hemoglobin reacted with BSC-PEG
- P50 vs monofunctional PEG-modified bHb ([2]; in words): higher P50 than monofunctional PEG-modified bHb

Molecule: Example I: bovine hemoglobin reduced with cysteine, modified with SC-PEG (MW 5000) at a molar ratio of 20:1
- Hill coeff. ([2]; Examples I-V and control): 2.58
- Osmotic Press. [3]: 24 mmHg
- Viscosity [3]: 3.6 cp
- colloid osmolality [3]: 24 mm Hg
- MetHb [4]: 6%
- Endotoxin [5]: < .1 EU
- endotoxins [5]: free of endotoxins
- Formation of Met-bHb in rat intravasculature [6]: substantially lower than that of unmodified hemoglobin
- Met-Hb at Half-life [6]: 29.3%
- Half-life ([6]; iv): 8.9 h
- Breathing [7]: 117 min⁻¹
- Heart Rate [7]: 392 min⁻¹
- Mean Arterial Press. [7]: 102 mmHg

Molecule: Example IX: bovine hemoglobin deoxygenated with sodium bisulfite, then modified using monofunctionally activated SC-PEG
- Hill Coefficient [2, 10]: 1.8
- P50 of PEG-Hb [2, 10]: 18.5 mmHg
- Hill Coefficient [2, 11]: 1.8
- P50 of PEG-Hb [2, 11]: 19.0 mmHg
- Hill Coefficient [2, 12]: 2.2
- P50 of PEG-Hb [2, 12]: 28.0 mmHg
- Hill Coefficient [2, 13]: 2.0
- P50 of PEG-Hb [2, 13]: 24.0 mmHg

Molecule: Example VIII: bovine hemoglobin partially deoxygenated by gas exchange, modified with SC-PEG (M.W. 5141), SC-PEG:Hb 12:1
- Hill coeff. [2, 14]: 1.7
- P50 [2, 14]: 18 mmHg
- Hill coeff. [2, 15]: 1.7
- P50 [2, 15]: 18 mmHg
- Hill coeff. [2, 16]: 1.7
- P50 [2, 16]: 18 mmHg
- Hill coeff. [2, 17]: 2.0
- P50 [2, 17]: 24 mmHg
- Hill coeff. [2, 18]: 2.2
- P50 [2, 18]: 28 mmHg
- Hill coeff. [2, 19]: 2.0
- P50 [2, 19]: 22 mmHg
- Hill coeff. [2, 20]: 2.0
- P50 [2, 20]: 22 mmHg
- colloid osmotic pressure [3]: 24 mmHg
- Viscosity ([3]; 6 percent (g/dl), 37° C.): 4.2 cp

Molecule: Example X: bovine hemoglobin deoxygenated by gas exchange, modified with BSC-PEG (M.W. 5000), BSC-PEG:Hb 2.5:1, crosslinked
- Hill coeff. [2, 21]: 1.8
- P50 [2, 21]: 20 mmHg
- Hill coeff. [2, 22]: 1.9
- P50 [2, 22]: 22 mmHg
- Hill coeff. [2, 23]: 2.0
- P50 [2, 23]: 25 mmHg
- Hill coeff. [2, 24]: 2.3
- P50 [2, 24]: 30 mmHg
- Hill coeff. [2, 25]: 2.3
- P50 [2, 25]: 31 mmHg
- Hill coeff. [2, 26]: 2.0
- P50 [2, 26]: 26 mmHg
- colloid osmotic pressure [3]: 20 mmHg
- Viscosity ([3]; 6 percent (g/dl), 37° C.): 4.5 cp

Molecule: SC-PEG(2000)-bHb: bovine hemoglobin modified with monofunctional SC-PEG of molecular weight 2000
- P50 [2, 27]: 24 mm Hg
- P50 [2, 28]: 30 mm Hg
- P50 [2, 29]: 32 mm Hg
- P50 [2, 30]: 31 mm Hg
- P50 [2, 31]: 32 mm Hg

Molecule: SC-PEG(4000)-bHb: bovine hemoglobin modified with monofunctional SC-PEG of molecular weight 4000
- P50 [2, 27]: 24 mm Hg
- P50 [2, 28]: 28 mm Hg
- P50 [2, 29]: 30 mm Hg
- P50 [2, 30]: 30 mm Hg
- P50 [2, 31]: 30 mm Hg

Molecule: SC-PEG(5000)-bHb: bovine hemoglobin modified with monofunctional SC-PEG of molecular weight 5000
- P50 [2, 27]: 22 mm Hg
- P50 [2, 28]: 24 mm Hg
- P50 [2, 29]: 29 mm Hg
- P50 [2, 30]: 30 mm Hg
- P50 [2, 31]: 30 mm Hg
- P50 ([2]; reacted in 0.1M [Cl-], degree of modification 5%): 24 mm Hg
- P50 ([2]; reacted in 0.1M [Cl-], degree of modification 10%): 22 mm Hg
- P50 ([2]; reacted in 0.1M [Cl-], degree of modification 20%): 22 mm Hg
- P50 ([2]; reacted in 0.5M [Cl-], degree of modification 5%): 28 mm Hg
- P50 ([2]; reacted in 0.5M [Cl-], degree of modification 10%): 24 mm Hg
- P50 ([2]; reacted in 0.5M [Cl-], degree of modification 20%): 24 mm Hg
- P50 ([2]; reacted in 1.0M [Cl-], degree of modification 5%): 30 mm Hg
- P50 ([2]; reacted in 1.0M [Cl-], degree of modification 10%): 29 mm Hg
- P50 ([2]; reacted in 1.0M [Cl-], degree of modification 20%): 29 mm Hg

Molecule: native stromafree bHb: native stromafree bHb from Biopure, Boston, MA [reference compound]
- Hill Coefficient [2, 32]: 2.3
- P50 [2, 32]: 28 mmHg
